Test results taken from article PMC8389807 (Journal of Medicinal Chemistry, 2021).
Like-named read-outs stand apart in the source and are kept apart here.

Tests used:
[1] = tested on: BrCr Lab Strain of EV-A71; assay: Antiviral activity against the BrCr lab strain of EV-A71 in RD cells (CPE reduction, MTS/PMS); format: cell-based; settings: Enterovirus A
HIV-1 (NL4.3) [2] = assay: microbe, parasite or virus in culture; format: cell-based; settings: MT-4 cells, 50% reduction of virus-induced cytopathic effect
HIV-2 (ROD) = assay: Anti-HIV-2 activity in MT-4 cells (CPE, MTS/PES); format: cell-based
in vitro [3] = settings: human
[4] = tested on: EV71 genogroup B2 strain 11316; assay: microbe, parasite or virus in culture; format: cell-based; settings: Enterovirus A, genogroup B2, strain 11316, RD cells
[5] = tested on: EV71 genogroup B5 strain TW/70902/08; assay: microbe, parasite or virus in culture; format: cell-based; settings: Enterovirus A, genogroup B5, strain TW/70902/08, RD cells
[6] = tested on: EV71 genogroup C2 strain H08300 461#812; assay: microbe, parasite or virus in culture; format: cell-based; settings: Enterovirus A, genogroup C2, strain H08300 461#812, RD cells
[7] = tested on: EV71 genogroup C4 strain TW/1956/05; assay: microbe, parasite or virus in culture; format: cell-based; settings: Enterovirus A, genogroup C4, strain TW/1956/05, RD cells
HIV = tested on: HIV; parameters: method as in PMID 26513643, PMID 31809045; settings: Figure 1, earlier prototypes; cited from earlier work
EV71 = tested on: EV71; parameters: method as in PMID 27246775, PMID 31809045; settings: Figure 1, earlier prototypes; cited from earlier work
[8] = Cytotoxicity in MT-4 cells (MTS/PES); settings: human
in vitro [9] = settings: human; remark: listed apart in the source
HIV-1 (NL4.3) [10] = assay: microbe, parasite or virus in culture; format: cell-based; settings: CXCR4-tropic strain, PBMC; for EC50: read-out: HIV-1 (NL4.3) EC50
HIV-1 (Ba-L) = assay: microbe, parasite or virus in culture; format: cell-based; settings: read-out: HIV-1 (Ba-L) EC50, CCR5-tropic strain, PBMC
[11] = EVA71, RD, BrCr lab strain, RD cells, 50% reduction of virus-induced CPE, read-out: EC50
[12] = Human immunodeficiency virus 1, MT4
[13] = Human immunodeficiency virus 2, MT4, MT-4 cells, 50% reduction of virus-induced cytopathic effect, read-out: HIV-2 (ROD) EC50

Row | Compound | EC50 [1, 11] | EC50 (HIV-1 (NL4.3) [2]; [12]) | EC50 (HIV-2 (ROD); [13]) | CC50 (in vitro [3]) | also measured
1 | O=C(CCC(CCC(=O)NC(Cc1c[nH]c2c(-c3cc(C(=O)O)cc(C(=O)O)c3)cccc12)C(=O)O)(CCC(=O)NC(Cc1c[nH]c2c(-c3cc(C(=O)O)cc(C(=O)O)c3)cccc12)C(=O)O)[N+](=O)[O-])NC(Cc1c[nH]c2c(-c3cc(C(=O)O)cc(C(=O)O)c3)cccc12)C(=O)O (stereo not shown) [Compound 16] | 1200 ± 200 nM | 400 ± 200 nM | 1900 ± 400 nM | – | –
2 | O=C(CCOCC(COCCC(=O)NC(Cc1c(-c2cccc(C(=O)O)c2)[nH]c2ccccc12)C(=O)O)(COCCC(=O)NC(Cc1c(-c2cccc(C(=O)O)c2)[nH]c2ccccc12)C(=O)O)COCCC(=O)NC(Cc1c(-c2cccc(C(=O)O)c2)[nH]c2ccccc12)C(=O)O)NC(Cc1c(-c2cccc(C(=O)O)c2)[nH]c2ccccc12)C(=O)O (stereo not shown) [III, reference compound] | – | 2000 ± 600 nM | 800 ± 500 nM | > 100000 nM | –
3 | O=C(CCC(CCC(=O)NC(Cc1c(-c2cccc(C(=O)O)c2)[nH]c2ccccc12)C(=O)O)(CCC(=O)NC(Cc1c(-c2cccc(C(=O)O)c2)[nH]c2ccccc12)C(=O)O)[N+](=O)[O-])NC(Cc1c(-c2cccc(C(=O)O)c2)[nH]c2ccccc12)C(=O)O (stereo not shown) [I, reference compound] | – | 16000 ± 5700 nM | 64000 ± 28000 nM | > 100000 nM | –
4 | O=C(CCOCC(COCCC(=O)NC(Cc1c[nH]c2c(-c3cccc(C(=O)O)c3)cccc12)C(=O)O)(COCCC(=O)NC(Cc1c[nH]c2c(-c3cccc(C(=O)O)c3)cccc12)C(=O)O)COCCC(=O)NC(Cc1c[nH]c2c(-c3cccc(C(=O)O)c3)cccc12)C(=O)O)NC(Cc1c[nH]c2c(-c3cccc(C(=O)O)c3)cccc12)C(=O)O (stereo not shown) [Compound 21] | 3100 ± 1100 nM | 14100 ± 600 nM | 7900 ± 900 nM | – | –
5 | O=C(CCC(CCC(=O)NC(Cc1c(-c2cc(C(=O)O)cc(C(=O)O)c2)[nH]c2ccccc12)C(=O)O)(CCC(=O)NC(Cc1c(-c2cc(C(=O)O)cc(C(=O)O)c2)[nH]c2ccccc12)C(=O)O)[N+](=O)[O-])NC(Cc1c(-c2cc(C(=O)O)cc(C(=O)O)c2)[nH]c2ccccc12)C(=O)O (stereo not shown) [AL-470, reference compound] | 300 ± 30 nM | 300 ± 100 nM | 600 ± 800 nM | – | EC50 ([1]; EVA71, RD, genogroup A, BrCr, RD cells (clinical isolate panel), read-out: EC50): 353 ± 31 nM; EC50 [4]: 179 ± 11 nM; EC50 [5]: 81 ± 13 nM; EC50 [6]: 57 ± 0.2 nM; EC50 [7]: 38 ± 3 nM; EC50 (HIV): 270 ± 120 nM; EC50 (EV71): 350 ± 30 nM
6 | NC(Cc1c(-c2cc(C(=O)O)cc(C(=O)O)c2)[nH]c2c(-c3cc(C(=O)O)cc(C(=O)O)c3)cc(-c3cc(C(=O)O)cc(C(=O)O)c3)cc12)C(=O)O (stereo not shown) [Compound 37, 5,5′,5″-(3-(2-Amino-2-carboxyethyl)-1H-indole-2,5,7-triyl)triisophthalic Acid] | – | > 100000 nM | – | – | EC50 ([1]; EVA71, RD): > 90000 nM; EC50 (HIV-2 (ROD); Human immunodeficiency virus 2, MT4, read-out: HIV-2 (ROD) EC50): > 100000 nM; CC50 at 5 days [8]: > 100000 nM
7 | CCOC(=O)c1ccc(OCCC2CCN(c3ccc(C)nn3)CC2)cc1 [pirodavir, reference compound] | – | – | – | – | EC50 ([1]; EVA71, BrCr lab strain, RD cells, 50% reduction of virus-induced CPE, read-out: EC50): 300 ± 100 nM; CC50 at 3 days (in vitro [9]): > 100000 nM
8 | O=C(CCC(CCC(=O)NC(Cc1c(-c2ccc(C(=O)O)cc2)[nH]c2ccccc12)C(=O)O)(CCC(=O)NC(Cc1c(-c2ccc(C(=O)O)cc2)[nH]c2ccccc12)C(=O)O)[N+](=O)[O-])NC(Cc1c(-c2ccc(C(=O)O)cc2)[nH]c2ccccc12)C(=O)O (stereo not shown) [II, reference compound] | – | 2400 ± 1300 nM | > 71000 nM | 71000 nM | –
9 | maraviroc | – | – | – | – | HIV-1 (NL4.3) EC50 (HIV-1 (NL4.3) [10]): insensitive; EC50 (HIV-1 (NL4.3) [10]): > 1000 nM; EC50 (HIV-1 (Ba-L)): 4.48 nM
10 | CN[C@@H]1[C@H](O[C@@H]2OC[C@@H](O)[C@H](O)[C@H]2O)[C@@H](O)[C@H](O[C@H]2c3cc(C)c(C(=O)N[C@H](C)C(=O)O)c(O)c3-c3c(cc4c(c3O)C(=O)c3cc(OC)cc(O)c3C4=O)[C@@H]2O)O[C@@H]1C [PRM-A, pradimicin A, reference compound] | – | 3300 ± 1200 nM | 5900 ± 3700 nM | – | CC50 at 5 days [8]: > 100000 nM
11 | O=C(CCOCC(COCCC(=O)NC(Cc1c[nH]c2c(-c3cc(C(=O)O)cc(C(=O)O)c3)cccc12)C(=O)O)(COCCC(=O)NC(Cc1c[nH]c2c(-c3cc(C(=O)O)cc(C(=O)O)c3)cccc12)C(=O)O)COCCC(=O)NC(Cc1c[nH]c2c(-c3cc(C(=O)O)cc(C(=O)O)c3)cccc12)C(=O)O)NC(Cc1c[nH]c2c(-c3cc(C(=O)O)cc(C(=O)O)c3)cccc12)C(=O)O (stereo not shown) [Compound 23] | 300 ± 40 nM | 20 ± 10 nM | 20 ± 20 nM | – | CC50 (in vitro [9]): > 55000 nM; CC50 at 120 h (in vitro [3]): 75000 nM
12 | O=C(CCOCC(COCCC(=O)NC(Cc1c(-c2ccc(C(=O)O)cc2)[nH]c2c(-c3ccc(C(=O)O)cc3)cccc12)C(=O)O)(COCCC(=O)NC(Cc1c(-c2ccc(C(=O)O)cc2)[nH]c2c(-c3ccc(C(=O)O)cc3)cccc12)C(=O)O)COCCC(=O)NC(Cc1c(-c2ccc(C(=O)O)cc2)[nH]c2c(-c3ccc(C(=O)O)cc3)cccc12)C(=O)O)NC(Cc1c(-c2ccc(C(=O)O)cc2)[nH]c2c(-c3ccc(C(=O)O)cc3)cccc12)C(=O)O (stereo not shown) [Compound 32] | 100 ± 20 nM | 200 ± 200 nM | 20 ± 20 nM | > 100000 nM | CC50 (in vitro [9]): > 100000 nM
13 | O=C(CCOCC(COCCC(=O)NC(Cc1c(-c2ccc(C(=O)O)cc2)[nH]c2ccccc12)C(=O)O)(COCCC(=O)NC(Cc1c(-c2ccc(C(=O)O)cc2)[nH]c2ccccc12)C(=O)O)COCCC(=O)NC(Cc1c(-c2ccc(C(=O)O)cc2)[nH]c2ccccc12)C(=O)O)NC(Cc1c(-c2ccc(C(=O)O)cc2)[nH]c2ccccc12)C(=O)O (stereo not shown) [IV, reference compound] | – | 700 ± 500 nM | 700 ± 800 nM | > 100000 nM | –
14 | c1cc(CN2CCCNCCNCCCNCC2)ccc1CN1CCCNCCNCCCNCC1 [AMD3100] | – | – | – | – | EC50 (HIV-1 (NL4.3) [10]; Human immunodeficiency virus 1): 3.57 ng/mL; EC50 (HIV-1 (Ba-L); Human immunodeficiency virus 1, BAL): > 1000 ng/mL
15 | O=C(CCC(CCC(=O)NC(Cc1c[nH]c2c(-c3cccc(C(=O)O)c3)cccc12)C(=O)O)(CCC(=O)NC(Cc1c[nH]c2c(-c3cccc(C(=O)O)c3)cccc12)C(=O)O)[N+](=O)[O-])NC(Cc1c[nH]c2c(-c3cccc(C(=O)O)c3)cccc12)C(=O)O (stereo not shown) [Compound 14] | 54800 ± 34100 nM | 45100 ± 10200 nM | > 30000 nM | > 100000 nM | CC50 (in vitro [9]): > 84000 nM
16 | O=C(CCOCC(COCCC(=O)NC(Cc1c[nH]c2c(-c3ccc(C(=O)O)cc3)cccc12)C(=O)O)(COCCC(=O)NC(Cc1c[nH]c2c(-c3ccc(C(=O)O)cc3)cccc12)C(=O)O)COCCC(=O)NC(Cc1c[nH]c2c(-c3ccc(C(=O)O)cc3)cccc12)C(=O)O)NC(Cc1c[nH]c2c(-c3ccc(C(=O)O)cc3)cccc12)C(=O)O (stereo not shown) [Compound 22] | 1700 ± 400 nM | 6500 ± 2500 nM | 400 ± 300 nM | > 100000 nM | CC50 (in vitro [9]): > 100000 nM
17 | dextran sulfate-5000 [DS-5000, reference compound] | – | – | – | – | EC50 (HIV-1 (NL4.3) [2]): 70 ± 20 nM; EC50 (HIV-2 (ROD); MT-4 cells, 50% reduction of virus-induced cytopathic effect, read-out: HIV-2 (ROD) EC50): 30 ± 10 nM
